# Species on record: Rattus norvegicus
# Assay: DrugMatrix - Regimen: Daily Repeat
# Assay type: toxicity, organism-based, Sprague-Dawley
# Set-up: regimen Daily Repeat, gender Male, age 6-8 weeks
# Details: in vivo, po, 900 mg/kg, route oral GAVAGE, dose level High, […]; for ABSOLUTE BASOPHIL / ABSOLUTE EOSINOPHIL / ABSOLUTE LYMPHOCYTE / ABSOLUTE MONOCYTE / BASOPHIL / EOSINOPHIL / ERYTHROCYTE COUNT / HEMATOCRIT / HEMOGLOBIN / LEUKOCYTE COUNT / LYMPHOCYTE / MEAN CORPUSCULAR HEMOGLOBIN / MEAN CORPUSCULAR HEMOGLOBIN CONCENTRATION / MEAN CORPUSCULAR VOLUME / MONOCYTE / NEUTROPHIL / PLATELET COUNT: tissue Blood
# [1] = 72 h, tissue Plasma, time 3 day
# [2] = 120 h, tissue Plasma, time 5 day
smiles,measurement,setting,value
"Clc1ccc(Cl)cc1 [1,4-DICHLOROBENZENE]",ABSOLUTE BASOPHIL,"72 h, time 3 day",33.3 cells/µL
same,ABSOLUTE EOSINOPHIL,"72 h, time 3 day",40 cells/µL
same,ABSOLUTE LYMPHOCYTE,"72 h, time 3 day",9740 cells/µL
same,ABSOLUTE MONOCYTE,"72 h, time 3 day",310 cells/µL
same,BASOPHIL,"72 h, time 3 day",0.27%
same,EOSINOPHIL,"72 h, time 3 day",0.33%
same,ERYTHROCYTE COUNT,"72 h, time 3 day",7.33 x10E6/uL
same,HEMATOCRIT,"72 h, time 3 day",47.67%
same,HEMOGLOBIN,"72 h, time 3 day",15.3 G/DL
same,LEUKOCYTE COUNT,"72 h, time 3 day",11.53 x10E3/uL
same,LYMPHOCYTE,"72 h, time 3 day",85.37%
same,MEAN CORPUSCULAR HEMOGLOBIN,"72 h, time 3 day",20.83 pg
same,MEAN CORPUSCULAR HEMOGLOBIN CONCENTRATION,"72 h, time 3 day",32.07 G/DL
same,MEAN CORPUSCULAR VOLUME,"72 h, time 3 day",65 fL
same,MONOCYTE,"72 h, time 3 day",2.5%
same,NEUTROPHIL,"72 h, time 3 day",11%
same,PLATELET COUNT,"72 h, time 3 day",1237 x10E3/uL
same,ALANINE AMINOTRANSFERASE,[1],80.33 u/L
same,ALBUMIN,[1],3.47 G/DL
same,ALKALINE PHOSPHATASE,[1],437.33 u/L
same,ASPARTATE AMINOTRANSFERASE,[1],129.33 u/L
same,BLOOD UREA NITROGEN,[1],18.67 mg/dL
same,CARBON DIOXIDE,[1],40 mmol/L
same,CHLORIDE,[1],106.67 MEQ/L
same,CHOLESTEROL,[1],71 mg/dL
same,CREATINE PHOSPHOKINASE,[1],391 u/L
same,CREATININE,[1],0.63 mg/dL
same,GLUCOSE,[1],167.33 mg/dL
same,LIPASE,[1],199.33 u/L
same,PHOSPHORUS,[1],9.67 mg/dL
same,POTASSIUM,[1],5.7 MEQ/L
same,SODIUM,[1],148.67 MEQ/L
same,TOTAL BILIRUBIN,[1],0.83 mg/dL
same,TOTAL PROTEIN,[1],5.53 G/DL
same,URIC ACID,[1],0.77 mg/dL
same,ABSOLUTE BASOPHIL,"120 h, time 5 day",30 cells/µL
same,ABSOLUTE EOSINOPHIL,"120 h, time 5 day",80 cells/µL
same,ABSOLUTE LYMPHOCYTE,"120 h, time 5 day",9070 cells/µL
same,ABSOLUTE MONOCYTE,"120 h, time 5 day",300 cells/µL
same,BASOPHIL,"120 h, time 5 day",0.3%
same,EOSINOPHIL,"120 h, time 5 day",0.73%
same,ERYTHROCYTE COUNT,"120 h, time 5 day",7.06 x10E6/uL
same,HEMATOCRIT,"120 h, time 5 day",45.4%
same,HEMOGLOBIN,"120 h, time 5 day",14.13 G/DL
same,LEUKOCYTE COUNT,"120 h, time 5 day",11.69 x10E3/uL
same,LYMPHOCYTE,"120 h, time 5 day",77.37%
same,MEAN CORPUSCULAR HEMOGLOBIN,"120 h, time 5 day",20.03 pg
same,MEAN CORPUSCULAR HEMOGLOBIN CONCENTRATION,"120 h, time 5 day",31.1 G/DL
same,MEAN CORPUSCULAR VOLUME,"120 h, time 5 day",64.53 fL
same,MONOCYTE,"120 h, time 5 day",2.57%
same,NEUTROPHIL,"120 h, time 5 day",18.23%
same,PLATELET COUNT,"120 h, time 5 day",1234.33 x10E3/uL
same,ALANINE AMINOTRANSFERASE,[2],88.67 u/L
same,ALBUMIN,[2],3.83 G/DL
same,ALKALINE PHOSPHATASE,[2],433.33 u/L
same,ASPARTATE AMINOTRANSFERASE,[2],100.33 u/L
same,BLOOD UREA NITROGEN,[2],16 mg/dL
same,CARBON DIOXIDE,[2],42.33 mmol/L
same,CHLORIDE,[2],105.33 MEQ/L
same,CHOLESTEROL,[2],119 mg/dL
same,CREATINE PHOSPHOKINASE,[2],376.67 u/L
same,CREATININE,[2],0.5 mg/dL
same,GLUCOSE,[2],166.67 mg/dL
same,LIPASE,[2],96 u/L
same,PHOSPHORUS,[2],9.13 mg/dL
same,POTASSIUM,[2],5.73 MEQ/L
same,SODIUM,[2],148.67 MEQ/L
same,TOTAL BILIRUBIN,[2],0.6 mg/dL
same,TOTAL PROTEIN,[2],6.27 G/DL
same,URIC ACID,[2],0.57 mg/dL
same,ABSOLUTE BASOPHIL,time 14 day,52 cells/µL
same,ABSOLUTE EOSINOPHIL,time 14 day,38 cells/µL
same,ABSOLUTE LYMPHOCYTE,time 14 day,10600 cells/µL
same,ABSOLUTE MONOCYTE,time 14 day,320 cells/µL
same,BASOPHIL,time 14 day,0.36%
same,EOSINOPHIL,time 14 day,0.28%
same,ERYTHROCYTE COUNT,time 14 day,7.26 x10E6/uL
same,HEMATOCRIT,time 14 day,44.36%
same,HEMOGLOBIN,time 14 day,14.58 G/DL
same,LEUKOCYTE COUNT,time 14 day,14.34 x10E3/uL
same,LYMPHOCYTE,time 14 day,74.48%
same,MEAN CORPUSCULAR HEMOGLOBIN,time 14 day,20.04 pg
same,MEAN CORPUSCULAR HEMOGLOBIN CONCENTRATION,time 14 day,32.82 G/DL
same,MEAN CORPUSCULAR VOLUME,time 14 day,61.16 fL
same,MONOCYTE,time 14 day,2.18%
same,NEUTROPHIL,time 14 day,22.12%
same,PLATELET COUNT,time 14 day,1242.2 x10E3/uL
same,ALANINE AMINOTRANSFERASE,"tissue Plasma, time 14 day",68 u/L
same,ALBUMIN,"tissue Plasma, time 14 day",4.02 G/DL
same,ALKALINE PHOSPHATASE,"tissue Plasma, time 14 day",529.2 u/L
same,ASPARTATE AMINOTRANSFERASE,"tissue Plasma, time 14 day",89.8 u/L
same,BLOOD UREA NITROGEN,"tissue Plasma, time 14 day",15.8 mg/dL
same,CARBON DIOXIDE,"tissue Plasma, time 14 day",43.6 mmol/L
same,CHLORIDE,"tissue Plasma, time 14 day",102.2 MEQ/L
same,CHOLESTEROL,"tissue Plasma, time 14 day",110.2 mg/dL
same,CREATINE PHOSPHOKINASE,"tissue Plasma, time 14 day",309 u/L
same,CREATININE,"tissue Plasma, time 14 day",0.78 mg/dL
same,GLUCOSE,"tissue Plasma, time 14 day",134.2 mg/dL
same,LACTATE DEHYDROGENASE,"tissue Plasma, time 14 day",217.6 u/L
same,LIPASE,"tissue Plasma, time 14 day",10 u/L
same,PHOSPHORUS,"tissue Plasma, time 14 day",9.34 mg/dL
same,POTASSIUM,"tissue Plasma, time 14 day",5.94 MEQ/L
same,SODIUM,"tissue Plasma, time 14 day",147.8 MEQ/L
same,TOTAL BILIRUBIN,"tissue Plasma, time 14 day",0.44 mg/dL
same,TOTAL PROTEIN,"tissue Plasma, time 14 day",6.7 G/DL
same,URIC ACID,"tissue Plasma, time 14 day",0.52 mg/dL

# From ChEMBL document CHEMBL3885881, “DrugMatrix”
